Measurements from patent publication US20020188122A1, “Novel compounds” (SmithKline Beecham Corporation, priority 1993, published 2002).

Columns and labels:
[1] = system: human PGHS-2 protein expression; assay: Prostoglandin endoperoxide synthase-2 (PGHS-2) assay, protein expression in LPS stimulated human monocytes; type: cell-based
Procedure: The followiong assay describes a method for determining the inhibitory effects of compounds of Formula (I) on human PGHS-2 protein expression in LPS stimulated human monocytes
Human peripheal blood monocytes were isolated from buffy coats by centrifugation through Ficoll and Percoll gradients. Cells were seeded at 2×10^6/well in 24 well plates and allowed to adhere for 1 hour in RPMI supplemented with 1% human AB serum, 20 mM L-glutamine, Penicillin-Streptomycin and 10 mM HEPES. Compounds were added at various concentrations and incubated at 37° C. for 10 minutes. LPS was added at 50 ng/well (to induce enzyme expression) and incubated overnight at 37° C. The supernatant was removed and cells washed once in cold PBS. The cells were lysed in 100 μl of cold lysis buffer(50 mM Tris/HCl pH 7.5, 150 mM NaCl, 1% NP40, 0.5% sodium deoxycholate, 0.1% SDS, 300 ug/ml DNAse, 0.1% TRITON X-100, 1 mM PMSF, 1 mM leupeptin, 1 mM pepstatin). The lysate was centrifuged (10,000× g for 10 min. at 4° C.) to remove debris and the soluble fraction was subjected to SDS PAGE. analysis (12% gel). Protein separated on the gel were transferred onto nitrocellulose membrane by electrophoretic means for 2 hours at 60 volts. The membrane was pretreated for one hour in PBS/0.1% Tween 20 with 5% non-fat dry milk. […]

Row | melting point | Structure (SMILES) | also measured
1 |  | C[C@@H]1C[C@H]2[C@@H]3CCC4=CC(=O)C=C[C@]4(C)[C@@]3(F)[C@@H](O)C[C@]2(C)[C@@]1(O)C(=O)CO [Dexamethasone] | inhibition of LPS induced PGHS-2 protein expression ([1]; rank order potency similar to that for inhibiting cytokine production): active
2 | 228 to 230 °C | Nc1nccc(-c2c(-c3ccc(F)cc3)ncn2C2CCSCC2)n1 [Example 91, 5-(2-Amino-4-pyrimidinyl)-4-(4-fluorophenyl)-1-(tetrahydro-4-thiopyranyl)imidazole] | 
3 | 193 to 194 °C | CNc1nccc(-c2c(-c3ccc(F)cc3)ncn2CCC#N)n1 [Example 93, 5-(2-Methylamino-4-pyrimidinyl)-4-(4-fluorophenyl)-1-(2-cyanoethyl)imidazole] | 
4 |  | CC(Cc1ccc(O)c(O)c1)C(C)Cc1ccc(O)c(O)c1 (stereo not shown) [NDGA] | inhibition of LPS induced PGHS-2 protein expression ([1]; up to 10 uM): inactive
